Data: patent publication US9499550B2 (BRISTOL-MYERS SQUIBB COMPANY, priority 2012, dated 2016)
Where two headings read alike, the source gives them in different places.

Legend:
[1] = system: HCV genotype 1b (Con1) replicon in HUH-7 cells; test: HCV replicon luciferase reporter assay, genotype 1b; assay type: cell-based; details: Hepatitis C virus, Huh-7, 72 h, HCV genotype 1b replicon luciferase, 3 days incubation, read-out: LE_1b (EC50, range)
How it was run: (§1)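 Replicon inhibition for both genotypes was measured as Renilla luciferase signal (EnduRen, 7.5 μM final, 2 h) after 3-day, 37° C exposure of replicon-bearing HUH-7 cells in 4% FCS DMEM, 0.5% DMSO. The 1b construct carries S1179I; the 1a H77 construct carries P1496L and S2204I. Twenty-point, 3-fold dilutions were fitted four-parametrically for EC50, and CC50 was taken from multiplexed Cell Titer-Blue.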

[2] = system: HCV genotype 1a (H77 strain) replicon in HUH-7 cells; test: HCV replicon luciferase reporter assay, genotype 1a; assay type: cell-based; details: Hepatitis C virus, Huh-7, 72 h, HCV genotype 1a replicon luciferase, 3 days incubation, read-out: LE_1a (EC50, range)
How it was run: as §1

Compound | EC50 [1] [nM] | EC50 [2] [nM] | EC50 ([1]; GETYPE1B) [nM] | EC50 ([2]; GETYPE1A) [nM]
CC[C@@H]1C[C@@H](C)CC/C=C\[C@@H]2C[C@@]2(C(=O)NS(=O)(=O)C2(C)CC2)NC(=O)[C@@H]2C[C@@H](Oc3nccc4c5c(ccc34)OCCO5)CN2C(=O)[C@H]1NC(=O)OC(C)(C)C [Compound 5339, tert-butyl ((2R,6S,7R,9S,13aS,14aR,16aS,Z)-2-((2,3-dihydro-[1,4]dioxino[2,3-f]isoquinolin-7-yl)oxy)-7-ethyl-9-methyl-14a-(((1-methylcyclopropyl)sulfonyl)carbamoyl)-5,16-dioxo-1,2,3,5,6,7,8,9,10,11,13a,14,14a,15,16,16a-hexadecahydrocyclopropa[e]pyrrolo[1,2-a][1,4]diazacyclopentadecin-6-yl)carbamate] | < 5.46 | 4.82 to 103 |  | 
CC[C@@H]1C[C@H](C)CC/C=C\[C@@H]2C[C@@]2(C(=O)NS(=O)(=O)C2(C)CC2)NC(=O)[C@@H]2C[C@@H](Oc3nccc4c5c(ccc34)OCCO5)CN2C(=O)[C@H]1NC(=O)OC(C)(C)C [Compound 5340, tert-butyl ((2R,6S,7R,9R,13aS,14aR,16aS,Z)-2-((2,3-dihydro-[1,4]dioxino[2,3-f]isoquinolin-7-yl)oxy)-7-ethyl-9-methyl-14a-(((1-methylcyclopropyl)sulfonyl)carbamoyl)-5,16-dioxo-1,2,3,5,6,7,8,9,10,11,13a,14,14a,15,16,16a-hexadecahydrocyclopropa[e]pyrrolo[1,2-a][1,4]diazacyclopentadecin-6-yl)carbamate] | < 5.46 | < 5.46 |  | 
CC[C@@H]1C[C@H](C)CC/C=C\[C@@H]2C[C@@]2(C(=O)NS(=O)(=O)C2CC2)NC(=O)[C@@H]2C[C@@H](Oc3nccc4c5c(ccc34)OCCO5)CN2C(=O)[C@H]1NC(=O)OC(C)(C)C [Compound 5341, tert-butyl ((2R,6S,7R,9R,13aS,14aR,16aS,Z)-14a-((cyclopropylsulfonyl)carbamoyl)-2-((2,3-dihydro-[1,4]dioxino[2,3-f]isoquinolin-7-yl)oxy)-7-ethyl-9-methyl-5,16-dioxo-1,2,3,5,6,7,8,9,10,11,13a,14,14a,15,16,16a-hexadecahydrocyclopropa[e]pyrrolo[1,2-a][1,4]diazacyclopentadecin-6-yl)carbamate] | < 5.46 | < 5.46 |  | 
C[C@@H]1CC/C=C\[C@@H]2C[C@@]2(C(=O)NS(=O)(=O)C2(CF)CC2)NC(=O)[C@@H]2C[C@@H](Oc3nccc4c5c(ccc34)OCCO5)CN2C(=O)[C@@H](NC(=O)OC(C)(C)C(C)(F)F)[C@H](C)C1 [Compound 5342] |  |  | < 5.46 | < 5.46
COc1ccc2c(O[C@@H]3C[C@H]4C(=O)N[C@]5(C(=O)NS(=O)(=O)C6(C)CC6)C[C@H]5/C=C\CC[C@@H](C)C[C@@H](C)[C@H](NC(=O)OC(C)(C)C)C(=O)N4C3)nc(-c3ccc(OC(C)C)cc3)c(OC)c2c1 [Compound 5344, tert-butyl ((2R,6S,7R,9R,13aS,14aR,16aS,Z)-2-((3-(4-isopropoxyphenyl)-4,6-dimethoxyisoquinolin-1-yl)oxy)-7,9-dimethyl-14a-(((1-methylcyclopropyl)sulfonyl)carbamoyl)-5,16-dioxo-1,2,3,5,6,7,8,9,10,11,13a,14,14a,15,16,16a-hexadecahydrocyclopropa[e]pyrrolo[1,2-a][1,4]diazacyclopentadecin-6-yl)carbamate] | < 5.46 | < 5.46 |  | 
COc1ccc2c(O[C@@H]3C[C@H]4C(=O)N[C@]5(C(=O)NS(=O)(=O)C6(C)CC6)C[C@H]5/C=C\CC[C@H](C)C[C@@H](C)[C@H](NC(=O)OC(C)(C)C(C)(F)F)C(=O)N4C3)nc(-c3ccc(OC(C)C)cc3)c(OC)c2c1 [Compound 5345, 3,3-difluoro-2-methylbutan-2-yl((2R,6S,7R,9S,13aS,14aR,16aS,Z)-2-((3-(4-isopropoxyphenyl)-4,6-dimethoxyisoquinolin-1-yl)oxy)-7,9-dimethyl-14a-(((1-methylcyclopropyl)sulfonyl)carbamoyl)-5,16-dioxo-1,2,3,5,6,7,8,9,10,11,13a,14,14a,15,16,16a-hexadecahydrocyclopropa[e]pyrrolo[1,2-a][1,4]diazacyclopentadecin-6-yl)carbamate] | < 5.46 | 4.82 to 103 |  | 
COc1ccc2c(O[C@@H]3C[C@H]4C(=O)N[C@]5(C(=O)NS(=O)(=O)C6(C)CC6)C[C@H]5/C=C\CC[C@@H](C)C[C@@H](C)[C@H](NC(=O)OC(C)(C)C(C)(F)F)C(=O)N4C3)nc(-c3ccc(OC(C)C)cc3)c(OC)c2c1 [Compound 5346, 3,3-difluoro-2-methylbutan-2-yl((2R,6S,7R,9R,13aS,14aR,16aS,Z)-2-((3-(4-isopropoxyphenyl)-4,6-dimethoxyisoquinolin-1-yl)oxy)-7,9-dimethyl-14a-(((1-methylcyclopropyl)sulfonyl)carbamoyl)-5,16-dioxo-1,2,3,5,6,7,8,9,10,11,13a,14,14a,15,16,16a-hexadecahydrocyclopropa[e]pyrrolo[1,2-a][1,4]diazacyclopentadecin-6-yl)carbamate] | < 5.46 | < 5.46 |  | 
COc1ccc2c(O[C@@H]3C[C@H]4C(=O)N[C@]5(C(=O)NS(=O)(=O)C6(C)CC6)C[C@H]5/C=C\CC[C@@H](C)C[C@@H](C)[C@H](NC(=O)OC(C)(C)C(F)(F)F)C(=O)N4C3)nc(-c3ccc(OC(C)C)cc3)c(OC)c2c1 [Compound 5348, 1,1,1-trifluoro-2-methylpropan-2-yl((2R,6S,7R,9R,13aS,14aR,16aS,Z)-2-((3-(4-isopropoxyphenyl)-4,6-dimethoxyisoquinolin-1-yl)oxy)-7,9-dimethyl-14a-(((1-methylcyclopropyl)sulfonyl)carbamoyl)-5,16-dioxo-1,2,3,5,6,7,8,9,10,11,13a,14,14a,15,16,16a-hexadecahydrocyclopropa[e]pyrrolo[1,2-a][1,4]diazacyclopentadecin-6-yl)carbamate] | < 5.46 | < 5.46 |  | 
COc1ccc2c(O[C@@H]3C[C@H]4C(=O)N[C@]5(C(=O)NS(=O)(=O)C6(C)CC6)C[C@H]5/C=C\CC[C@H](C)C[C@@H](C)[C@H](NC(=O)O[C@H](C)C(F)(F)F)C(=O)N4C3)nc(-c3ccc(OC(C)C)cc3)c(OC)c2c1 [Compound 5349, (R)-1,1,1-trifluoropropan-2-yl ((2R,6S,7R,9S,13aS,14aR,16aS,Z)-2-((3-(4-isopropoxyphenyl)-4,6-dimethoxyisoquinolin-1-yl)oxy)-7,9-dimethyl-14a-(((1-methylcyclopropyl)sulfonyl)carbamoyl)-5,16-dioxo-1,2,3,5,6,7,8,9,10,11,13a,14,14a,15,16,16a-hexadecahydrocyclopropa[e]pyrrolo[1,2-a][1,4]diazacyclopentadecin-6-yl)carbamate] | < 5.46 | 4.82 to 103 |  | 
